Experiment: xn = mol fraction of the nth substance listed
Conditions: 100 kPa, x1 = 0.24

O=S(=O)([N-]S(=O)(=O)C(F)(F)F)C(F)(F)F.O=S(=O)([N-]S(=O)(=O)C(F)(F)F)C(F)(F)F.[Mg+2] + CCCC[N+]1(C)CCCC1.O=S(=O)([N-]S(=O)(=O)C(F)(F)F)C(F)(F)F
Conditions	electrical conductivity [S/m]
279.2 K	0.003
282.4 K	0.005
286.1 K	0.006
289.5 K	0.009
293 K	0.013
296.9 K	0.017
300.2 K	0.022
304.4 K	0.031
310.6 K	0.046
317.5 K	0.07
323.8 K	0.096
334.5 K	0.159
345.4 K	0.252
355.5 K	0.346
363.5 K	0.461
372.9 K	0.574
386 K	0.786
400.6 K	1.08
417.1 K	1.44

O=S(=O)([N-]S(=O)(=O)C(F)(F)F)C(F)(F)F.O=S(=O)([N-]S(=O)(=O)C(F)(F)F)C(F)(F)F.[Zn+2] + CCCC[N+]1(C)CCCC1.O=S(=O)([N-]S(=O)(=O)C(F)(F)F)C(F)(F)F
Conditions	electrical conductivity [S/m]
337.3 K	0.163
344.9 K	0.213
366.8 K	0.399
375.2 K	0.508
391 K	0.805
430.4 K	1.79
449.5 K	2.51

O=S(=O)([N-]S(=O)(=O)C(F)(F)F)C(F)(F)F.[Li+] + CCCC[N+]1(C)CCCC1.O=S(=O)([N-]S(=O)(=O)C(F)(F)F)C(F)(F)F
Conditions	electrical conductivity [S/m]
272.9 K	0.005
279.8 K	0.01
288.8 K	0.027
295.1 K	0.052
305.1 K	0.098
325.1 K	0.235
338.2 K	0.329
360.2 K	0.633
371.2 K	0.846
385.4 K	1.24
409.4 K	1.88
429.6 K	2.77

O=S(=O)([N-]S(=O)(=O)C(F)(F)F)C(F)(F)F.[Na+] + CCCC[N+]1(C)CCCC1.O=S(=O)([N-]S(=O)(=O)C(F)(F)F)C(F)(F)F
Conditions	electrical conductivity [S/m]
274.2 K	0.006
283.8 K	0.02
291.9 K	0.041
300.2 K	0.07
308.6 K	0.119
323.4 K	0.223
356.5 K	0.663
362.4 K	0.805
380.6 K	1.24
417.8 K	2.45
434.2 K	3.04

Reference: a compilation of properties of binary mixtures (doi:10.1021/acs.jpcc.8b05573)
